Assay results: ChEMBL document CHEMBL3044568, “Synthesis, analgesic, anti-inflammatory, and in vitro antimicrobial activities of some novel quinazolin-4(3H)-one derivatives” (Med Chem Res, 2013)
Converted amounts (≈) assume the structure as drawn.

Columns and labels:
Rattus norvegicus [1] = assay: Anti-inflammatory activity in Rattus norvegicus Wistar (rat) assessed as protection against carrageenan-induced paw edema at 20 mg/kg, po measured at 1 hr by plethysmographic analysis (reference value: 6 +/- 0.63%); assay type: functional
Mus musculus [2] = assay: Analgesic activity in Mus musculus […] albino (mouse) at 10 mg/kg, po measured at 3 hr by tail flick test (reference value: 3 +/- 0.41%)
Rattus norvegicus [3] = assay: Anti-inflammatory activity in Rattus norvegicus Wistar (rat) assessed as protection against carrageenan-induced paw edema at 20 mg/kg, po measured at 30 min by plethysmographic analysis (reference value: 4 +/- 0.28%); assay type: functional
Pseudomonas aeruginosa = assay: Antibacterial activity against Pseudomonas aeruginosa […] assessed as growth inhibition after 24 hr by agar streak dilution method; assay type: functional
[4] = test system: Staphylococcus epidermidis; assay: Antibacterial activity against Staphylococcus epidermidis ATCC 155 assessed as growth inhibition after 24 hr by agar streak dilution method; assay type: functional; conditions: ATCC 155, 24 h
Staphylococcus aureus = assay: Antibacterial activity against Staphylococcus aureus ATCC 9144 assessed as growth inhibition after 24 hr by agar streak dilution method; assay type: functional; conditions: ATCC 9144, 24 h
Mus musculus [5] = assay: Analgesic activity in Mus musculus […] albino (mouse) at 20 mg/kg, po measured at 1 hr by tail flick test (reference value: 5 +/- 0.49%)
Rattus norvegicus [6] = assay: Anti-inflammatory activity in Rattus norvegicus Wistar (rat) assessed as protection against carrageenan-induced paw edema at 10 mg/kg, po measured at 30 min by plethysmographic analysis (reference value: 4 +/- 0.28%); assay type: functional
Rattus norvegicus [7] = assay: Anti-inflammatory activity in Rattus norvegicus Wistar (rat) assessed as protection against carrageenan-induced paw edema at 20 mg/kg, po measured at 3 hr by plethysmographic analysis (reference value: 4 +/- 0.75%); assay type: functional
Escherichia coli = assay: Antibacterial activity against Escherichia coli ATCC 25922 assessed as growth inhibition after 24 hr by agar streak dilution method; assay type: functional; conditions: ATCC 25922, 24 h
Mus musculus [8] = assay: Analgesic activity in Mus musculus […] albino (mouse) at 10 mg/kg, po measured at 30 min by tail flick test (reference value: 4 +/- 0.72%)
Mus musculus [9] = assay: Analgesic activity in Mus musculus […] albino (mouse) at 10 mg/kg, po measured at 2 hr by tail flick test (reference value: 6 +/- 0.84%)
Aspergillus fumigatus = assay: Antifungal activity against Aspergillus fumigatus ATCC 46645 assessed as growth inhibition after 48 hr by agar streak dilution method; assay type: functional; conditions: ATCC 46645, 48 h
Mus musculus [10] = assay: Analgesic activity in Mus musculus […] albino (mouse) at 20 mg/kg, po measured at 3 hr by tail flick test (reference value: 3 +/- 0.41%)
Bacillus cereus = assay: Antibacterial activity against Bacillus cereus ATCC 11778 assessed as growth inhibition after 24 hr by agar streak dilution method; assay type: functional; conditions: ATCC 11778, 24 h
Aspergillus niger = assay: Antifungal activity against Aspergillus niger ATCC 9029 assessed as growth inhibition after 48 hr by agar streak dilution method; assay type: functional; conditions: ATCC 9029, 48 h
Mus musculus [11] = assay: Analgesic activity in Mus musculus […] albino (mouse) at 20 mg/kg, po measured at 30 min by tail flick test (reference value: 4 +/- 0.72%)
Micrococcus luteus = assay: Antibacterial activity against Micrococcus luteus ATCC 4698 assessed as growth inhibition after 24 hr by agar streak dilution method; assay type: functional; conditions: ATCC 4698, 24 h
Rattus norvegicus [12] = assay: Anti-inflammatory activity in Rattus norvegicus Wistar (rat) assessed as protection against carrageenan-induced paw edema at 10 mg/kg, po measured at 2 hr by plethysmographic analysis (reference value: 5 +/- 0.41%); assay type: functional
Mus musculus [13] = assay: Analgesic activity in Mus musculus […] albino (mouse) at 10 mg/kg, po measured at 1 hr by tail flick test (reference value: 5 +/- 0.49%)
Rattus norvegicus [14] = assay: Anti-inflammatory activity in Rattus norvegicus Wistar (rat) assessed as protection against carrageenan-induced paw edema at 10 mg/kg, po measured at 1 hr by plethysmographic analysis (reference value: 6 +/- 0.63%); assay type: functional
Rattus norvegicus [15] = assay: Ulcerogenecity in Rattus norvegicus Wistar albino (rat) stomach assessed as ulcer index administered 20 mg/kg, ip qd for 3 days measured on day 4 relative to aspirin; assay type: ADME, organism-based; parameters: dose 20 mg/kg, route intraperitoneal; conditions: in vivo, 72 h
Rattus norvegicus [16] = assay: Anti-inflammatory activity in Rattus norvegicus Wistar (rat) assessed as protection against carrageenan-induced paw edema at 20 mg/kg, po measured at 2 hr by plethysmographic analysis (reference value: 5 +/- 0.41%); assay type: functional
Mus musculus [17] = assay: Analgesic activity in Mus musculus […] albino (mouse) at 20 mg/kg, po measured at 2 hr by tail flick test (reference value: 6 +/- 0.84%)
Klebsiella pneumoniae = assay: Antibacterial activity against Klebsiella pneumoniae ATCC 11298 assessed as growth inhibition after 24 hr by agar streak dilution method; assay type: functional; conditions: ATCC 11298, 24 h
Rattus norvegicus [18] = assay: Ulcerogenecity in Rattus norvegicus Wistar albino (rat) stomach assessed as ulcer index administered 20 mg/kg, ip qd for 3 days measured on day 4 relative to diclofenac; assay type: ADME, organism-based; parameters: dose 20 mg/kg, route intraperitoneal; conditions: in vivo, 72 h
Rattus norvegicus [19] = assay: Anti-inflammatory activity in Rattus norvegicus Wistar (rat) assessed as protection against carrageenan-induced paw edema at 10 mg/kg, po measured at 3 hr by plethysmographic analysis (reference value: 4 +/- 0.75%); assay type: functional
Rattus norvegicus [20] = assay: Ulcerogenecity in Rattus norvegicus Wistar albino (rat) stomach assessed as ulcer index administered 20 mg/kg, ip qd for 3 days measured on day 4 (reference value: 0.13 +/- 0.05 no unit); assay type: ADME, organism-based; parameters: dose 20 mg/kg, route intraperitoneal; conditions: in vivo, 72 h

| Compound | Activity (Rattus norvegicus [1]) [%] | Activity (Mus musculus [2]) [%] | Activity (Rattus norvegicus [3]) [%] | MIC (Pseudomonas aeruginosa) [µg/mL] | MIC [4] [µg/mL] | MIC (Staphylococcus aureus) [µg/mL] | Activity (Mus musculus [5]) [%] | Activity (Rattus norvegicus [6]) [%] | Activity (Rattus norvegicus [7]) [%] | MIC (Escherichia coli) [µg/mL] | Activity (Mus musculus [8]) [%] | Activity (Mus musculus [9]) [%] | MIC (Aspergillus fumigatus) [µg/mL] | Activity (Mus musculus [10]) [%] | MIC (Bacillus cereus) [µg/mL] | MIC (Aspergillus niger) [µg/mL] | Activity (Mus musculus [11]) [%] | MIC (Micrococcus luteus) [µg/mL] | Activity (Rattus norvegicus [12]) [%] | Activity (Mus musculus [13]) [%] | also measured |
| --- | --- | --- | --- | --- | --- | --- | --- | --- | --- | --- | --- | --- | --- | --- | --- | --- | --- | --- | --- | --- | --- |
| Cc1ccc(/C=N/NCC(=O)Nc2ccc(-n3c(C)nc4ccccc4c3=O)cc2)cc1 | 54 | 37 | 41 | 62.5 (≈ 147 µM) | 62.5 (≈ 147 µM) | 125 (≈ 294 µM) | 59 | 30 | 39 | 62.5 (≈ 147 µM) | 37 | 47 | 125 (≈ 294 µM) | 41 | 31.2 (≈ 73.4 µM) | 62.5 (≈ 147 µM) | 48 | 125 (≈ 294 µM) | 41 | 42 | Activity (Rattus norvegicus [14]): 35%; UI (Rattus norvegicus [15]): 31%; Activity (Rattus norvegicus [16]): 60%; Activity (Mus musculus [17]): 63%; MIC (Klebsiella pneumoniae): 31.2 µg/mL (≈ 73.4 µM); UI (Rattus norvegicus [18]): 34%; Activity (Rattus norvegicus [19]): 31%; UI (Rattus norvegicus [20]): 0.61 no unit |
| Cc1nc2ccccc2c(=O)n1-c1ccc(NC(=O)CN/N=C/c2ccc([N+](=O)[O-])cc2)cc1 | 36 | 25 | 29 | 15.6 (≈ 34.2 µM) | 7.81 (≈ 17.1 µM) | 31.2 (≈ 68.5 µM) | 42 | 20 | 31 | 31.2 (≈ 68.5 µM) | 26 | 36 | 15.6 (≈ 34.2 µM) | 27 | 7.81 (≈ 17.1 µM) | 15.6 (≈ 34.2 µM) | 38 | 15.6 (≈ 34.2 µM) | 31 | 31 | Activity (Rattus norvegicus [14]): 26%; UI (Rattus norvegicus [15]): 31%; Activity (Rattus norvegicus [16]): 40%; Activity (Mus musculus [17]): 49%; MIC (Klebsiella pneumoniae): 7.81 µg/mL (≈ 17.1 µM); UI (Rattus norvegicus [18]): 34%; Activity (Rattus norvegicus [19]): 20%; UI (Rattus norvegicus [20]): 0.8 no unit |
| Cc1nc2ccccc2c(=O)n1-c1ccc(NC(=O)CN/N=C/c2ccccc2)cc1 | 46 | 29 | 35 | 31.2 (≈ 75.9 µM) | 31.2 (≈ 75.9 µM) | 31.2 (≈ 75.9 µM) | 50 | 24 | 32 | 62.5 (≈ 152 µM) | 30 | 41 | 31.2 (≈ 75.9 µM) | 32 | 31.2 (≈ 75.9 µM) | 31.2 (≈ 75.9 µM) | 42 | 62.5 (≈ 152 µM) | 34 | 35 | Activity (Rattus norvegicus [14]): 29%; UI (Rattus norvegicus [15]): 31%; Activity (Rattus norvegicus [16]): 51%; Activity (Mus musculus [17]): 57%; MIC (Klebsiella pneumoniae): 15.6 µg/mL (≈ 38 µM); UI (Rattus norvegicus [18]): 34%; Activity (Rattus norvegicus [19]): 28%; UI (Rattus norvegicus [20]): 0.7 no unit |
| COc1ccc(/C=N/NCC(=O)Nc2ccc(-n3c(C)nc4ccccc4c3=O)cc2)cc1 | 37 | 23 | 31 | 62.5 (≈ 142 µM) | 62.5 (≈ 142 µM) | 125 (≈ 283 µM) | 40 | 22 | 30 | 125 (≈ 283 µM) | 24 | 35 | 62.5 (≈ 142 µM) | 28 | 62.5 (≈ 142 µM) | 62.5 (≈ 142 µM) | 35 | 62.5 (≈ 142 µM) | 29 | 32 | Activity (Rattus norvegicus [14]): 25%; UI (Rattus norvegicus [15]): 51%; Activity (Rattus norvegicus [16]): 42%; Activity (Mus musculus [17]): 48%; MIC (Klebsiella pneumoniae): 31.2 µg/mL (≈ 70.8 µM); UI (Rattus norvegicus [18]): 51%; Activity (Rattus norvegicus [19]): 19%; UI (Rattus norvegicus [20]): 0.86 no unit |
| Cc1ccc(/C=N\NCC(=O)Nc2ccc(-n3c(C)nc4ccccc4c3=O)cc2)o1 | 35 | 19 | 31 | 31.2 (≈ 75.2 µM) | 62.5 (≈ 150 µM) | 62.5 (≈ 150 µM) | 33 | 19 | 30 | 62.5 (≈ 150 µM) | 17 | 27 | 62.5 (≈ 150 µM) | 21 | 62.5 (≈ 150 µM) | 125 (≈ 301 µM) | 29 | 125 (≈ 301 µM) | 30 | 24 | Activity (Rattus norvegicus [14]): 25%; UI (Rattus norvegicus [15]): 31%; Activity (Rattus norvegicus [16]): 39%; Activity (Mus musculus [17]): 38%; MIC (Klebsiella pneumoniae): 62.5 µg/mL (≈ 150 µM); UI (Rattus norvegicus [18]): 34%; Activity (Rattus norvegicus [19]): 23%; UI (Rattus norvegicus [20]): 0.77 no unit |
